Data as given in ChEMBL document CHEMBL1201862, “PubChem BioAssay data set” (2004).
One block for each compound: values may come before it. Activity calls are given as the source filed them.

What was measured:
[1] = target: T1, Corticotropin-releasing factor receptor 2/Corticotropin-releasing factor-binding protein (Homo sapiens, UniProt P24387+Q13324); assay: Dose Response confirmation of uHTS hits for small molecule antagonists of the CRF-binding protein and CRF-R2 receptor complex.; type: functional; conditions: read-out: IC50_Mean
T1 sequence (Q13324 whole entry): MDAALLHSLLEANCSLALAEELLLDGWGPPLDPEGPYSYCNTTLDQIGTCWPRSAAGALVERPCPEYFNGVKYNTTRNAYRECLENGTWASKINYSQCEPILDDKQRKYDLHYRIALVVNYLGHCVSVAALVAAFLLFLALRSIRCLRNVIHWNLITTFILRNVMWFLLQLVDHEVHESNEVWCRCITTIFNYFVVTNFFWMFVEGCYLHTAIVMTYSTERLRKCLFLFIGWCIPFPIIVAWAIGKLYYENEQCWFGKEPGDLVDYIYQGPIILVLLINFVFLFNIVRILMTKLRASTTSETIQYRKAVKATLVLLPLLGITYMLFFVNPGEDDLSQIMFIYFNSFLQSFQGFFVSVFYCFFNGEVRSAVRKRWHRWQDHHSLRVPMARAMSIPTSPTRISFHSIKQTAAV
T1 sequence (P24387 whole entry): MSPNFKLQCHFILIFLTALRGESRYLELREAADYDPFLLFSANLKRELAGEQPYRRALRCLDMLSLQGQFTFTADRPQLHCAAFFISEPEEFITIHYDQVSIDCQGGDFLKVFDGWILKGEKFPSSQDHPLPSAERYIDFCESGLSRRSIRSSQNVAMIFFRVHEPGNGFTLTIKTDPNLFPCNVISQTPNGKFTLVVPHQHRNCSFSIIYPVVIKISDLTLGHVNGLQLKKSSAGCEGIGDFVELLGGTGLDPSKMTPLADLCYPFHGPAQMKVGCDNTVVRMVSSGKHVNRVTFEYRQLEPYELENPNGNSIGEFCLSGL

[2] = target: T1, Corticotropin-releasing factor receptor 2/Corticotropin-releasing factor-binding protein; assay: activators of CRF receptor 2 with binding protein – uHTS hits, confirmation (AID 602473); type: functional; conditions: read-out: EC50_Mean
[3] = target: T2, Eukaryotic translation initiation factor 2-alpha kinase 3 (Homo sapiens, UniProt Q9NZJ5); assay: Counterscreen assay for PERK inhibitors: Dose response cell-based high throughput screening assay to measure inhibition of PERK at 6 hours. [Related pubchem assays: 1522, 1416 ]; type: functional
T2 sequence (Q9NZJ5 whole entry): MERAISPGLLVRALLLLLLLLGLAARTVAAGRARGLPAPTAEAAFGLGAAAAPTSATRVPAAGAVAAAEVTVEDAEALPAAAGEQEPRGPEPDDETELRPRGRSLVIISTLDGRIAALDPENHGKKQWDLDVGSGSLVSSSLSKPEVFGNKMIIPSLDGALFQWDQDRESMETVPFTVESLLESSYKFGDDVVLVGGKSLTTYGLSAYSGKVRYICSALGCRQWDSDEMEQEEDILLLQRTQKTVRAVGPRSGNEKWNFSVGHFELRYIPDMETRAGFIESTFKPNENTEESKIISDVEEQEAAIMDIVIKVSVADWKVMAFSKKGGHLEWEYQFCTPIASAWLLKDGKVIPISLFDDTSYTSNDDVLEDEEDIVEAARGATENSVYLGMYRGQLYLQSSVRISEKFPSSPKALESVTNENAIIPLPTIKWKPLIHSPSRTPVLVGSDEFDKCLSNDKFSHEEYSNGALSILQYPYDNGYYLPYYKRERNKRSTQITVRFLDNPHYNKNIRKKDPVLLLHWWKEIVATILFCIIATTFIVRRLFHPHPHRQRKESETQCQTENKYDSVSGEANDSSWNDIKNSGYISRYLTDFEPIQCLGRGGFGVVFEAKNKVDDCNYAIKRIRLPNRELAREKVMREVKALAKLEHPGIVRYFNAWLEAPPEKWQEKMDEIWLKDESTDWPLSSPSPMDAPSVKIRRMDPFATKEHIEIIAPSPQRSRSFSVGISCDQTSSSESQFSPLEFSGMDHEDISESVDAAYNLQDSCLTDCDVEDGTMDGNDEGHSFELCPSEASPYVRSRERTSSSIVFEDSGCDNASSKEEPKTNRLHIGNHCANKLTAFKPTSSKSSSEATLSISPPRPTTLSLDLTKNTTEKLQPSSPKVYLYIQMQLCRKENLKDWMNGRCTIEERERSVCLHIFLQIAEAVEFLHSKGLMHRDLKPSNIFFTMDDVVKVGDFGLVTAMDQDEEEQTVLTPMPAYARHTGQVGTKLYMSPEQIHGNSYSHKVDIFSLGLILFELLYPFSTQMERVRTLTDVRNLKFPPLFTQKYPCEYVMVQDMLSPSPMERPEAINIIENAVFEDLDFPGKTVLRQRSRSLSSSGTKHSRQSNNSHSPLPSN

[4] = target: T2, Eukaryotic translation initiation factor 2-alpha kinase 3; assay: Dose response cell-based high-throughput screening assay to measure PERK inhibition. [Related pubchem assays: 1416 ]; type: functional
[5] = target: Melanin-concentrating hormone receptor 1 (Homo sapiens, UniProt Q99705); assay: Late-stage fluorescence-based counterscreen for antagonists of the G-protein coupled receptor 7 (GPR7): cell-based dose response assay to identify antagonists of the melanin-concentrating hormone receptor 1 (MCHR1). [Related pubchem assays (depositor defined):AID1861, AID1880, AID1952, AID2148, AID2251, AID2257, AID485339]; type: functional;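 further: stimulated with 30 nM MCH peptide agonist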
Sequence of Melanin-concentrating hormone receptor 1 (Q99705 whole entry): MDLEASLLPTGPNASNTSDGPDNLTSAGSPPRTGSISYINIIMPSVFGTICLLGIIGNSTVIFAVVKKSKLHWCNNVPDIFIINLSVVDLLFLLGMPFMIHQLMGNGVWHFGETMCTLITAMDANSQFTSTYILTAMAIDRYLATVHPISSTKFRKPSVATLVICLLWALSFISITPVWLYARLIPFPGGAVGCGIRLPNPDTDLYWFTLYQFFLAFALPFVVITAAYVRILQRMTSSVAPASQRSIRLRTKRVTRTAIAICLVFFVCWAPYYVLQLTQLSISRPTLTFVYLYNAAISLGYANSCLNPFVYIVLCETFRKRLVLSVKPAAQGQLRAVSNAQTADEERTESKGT

cells [6] = type: functional, cell-based
INS1 = assay: beta cell apoptosis inhibitors, cytokine rescue, dose response, luminescence, retest (AID 449756); type: functional, cell-based; conditions: Rattus norvegicus;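 further: cell death triggered by IL-1 beta plus TNF-alpha plus IFN-gamma mixture; protective hits raise ATP signal compared with cytokine alone wells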
cells [7] = type: functional, cell-based; remark: listed apart in the source
[8] = Luminescence-based counterscreen assay for KLF5 inhibitors: dose response cell-based high throughput screening assay to identify cytotoxic compounds using the IEC-6 intestinal epithelial cell line. [Related pubchem assays: 1700 (Primary screen.), 1834 (Confirmation screen.), 1858 (Summary AID.), 1905 (Counterscreen.)]; type: functional
[9] = target: G2/mitotic-specific cyclin-B1 (Homo sapiens, UniProt P14635); assay: Counterscreen assay for inhibitors of Wee1 degradation: dose response cell-based assay to identify inhibitors of cyclin B degradation. [Related pubchem assays: 1410, 1321 ]; type: functional
Sequence of G2/mitotic-specific cyclin-B1 (P14635 whole entry): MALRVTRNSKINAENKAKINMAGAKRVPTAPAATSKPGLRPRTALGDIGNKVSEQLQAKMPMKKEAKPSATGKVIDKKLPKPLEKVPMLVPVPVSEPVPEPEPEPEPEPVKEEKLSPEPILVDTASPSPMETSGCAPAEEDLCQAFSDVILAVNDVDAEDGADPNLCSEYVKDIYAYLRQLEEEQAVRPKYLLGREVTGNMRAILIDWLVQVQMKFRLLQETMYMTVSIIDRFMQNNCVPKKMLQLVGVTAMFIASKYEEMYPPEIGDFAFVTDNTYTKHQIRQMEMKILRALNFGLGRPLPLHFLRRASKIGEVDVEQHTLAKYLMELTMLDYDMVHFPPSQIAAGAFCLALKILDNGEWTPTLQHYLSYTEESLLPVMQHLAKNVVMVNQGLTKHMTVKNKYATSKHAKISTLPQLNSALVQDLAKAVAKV

Wee1-like protein kinase = Wee1-like protein kinase (Homo sapiens, UniProt P30291); assay: Dose Response Cell-based Assay for Inhibitors of Wee1 Degradation. [Related pubchem assays: 1410, 1321 ]; type: functional
Sequence of Wee1-like protein kinase (P30291 whole entry): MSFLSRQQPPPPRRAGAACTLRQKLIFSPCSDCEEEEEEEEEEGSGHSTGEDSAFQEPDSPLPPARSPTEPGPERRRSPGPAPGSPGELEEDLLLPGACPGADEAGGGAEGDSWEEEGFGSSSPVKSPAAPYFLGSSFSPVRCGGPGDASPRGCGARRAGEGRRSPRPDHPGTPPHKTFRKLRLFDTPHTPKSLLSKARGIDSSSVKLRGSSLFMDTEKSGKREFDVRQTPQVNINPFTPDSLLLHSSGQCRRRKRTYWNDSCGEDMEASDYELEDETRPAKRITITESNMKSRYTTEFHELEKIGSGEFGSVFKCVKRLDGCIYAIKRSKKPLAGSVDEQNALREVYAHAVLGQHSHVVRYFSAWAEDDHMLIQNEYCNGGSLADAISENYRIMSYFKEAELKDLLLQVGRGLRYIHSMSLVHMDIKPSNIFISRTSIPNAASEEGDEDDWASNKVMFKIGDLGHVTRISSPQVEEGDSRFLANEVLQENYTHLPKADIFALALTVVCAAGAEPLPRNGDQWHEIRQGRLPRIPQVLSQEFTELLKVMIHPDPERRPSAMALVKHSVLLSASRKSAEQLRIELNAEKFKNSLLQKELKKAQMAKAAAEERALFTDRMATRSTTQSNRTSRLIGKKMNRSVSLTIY

[10] = Vero cell cytotoxicity, dose response, cytotoxicity control for Vif-APOBEC3G degradation inhibitor project, Vero cells (AID 1117358); type: functional; conditions: Human immunodeficiency virus 1, Vero
[11] = target: Potassium voltage-gated channel subfamily KQT member 2 (Rattus norvegicus, UniProt O88943); assay: Mode of action assay - current amplitude concentration response for derivatives of ZTZ240, a potentiator of KCNQ2 potassium channels. [Related pubchem assays: 2258 (Summary assay for the KCNQ2 potentiators.), 2239 (Primary HTS assay for KCNQ2 potentiators with 305606 compounds tested, and 1644 are found to be active.)]; type: functional
Sequence of Potassium voltage-gated channel subfamily KQT member 2 (O88943 whole entry): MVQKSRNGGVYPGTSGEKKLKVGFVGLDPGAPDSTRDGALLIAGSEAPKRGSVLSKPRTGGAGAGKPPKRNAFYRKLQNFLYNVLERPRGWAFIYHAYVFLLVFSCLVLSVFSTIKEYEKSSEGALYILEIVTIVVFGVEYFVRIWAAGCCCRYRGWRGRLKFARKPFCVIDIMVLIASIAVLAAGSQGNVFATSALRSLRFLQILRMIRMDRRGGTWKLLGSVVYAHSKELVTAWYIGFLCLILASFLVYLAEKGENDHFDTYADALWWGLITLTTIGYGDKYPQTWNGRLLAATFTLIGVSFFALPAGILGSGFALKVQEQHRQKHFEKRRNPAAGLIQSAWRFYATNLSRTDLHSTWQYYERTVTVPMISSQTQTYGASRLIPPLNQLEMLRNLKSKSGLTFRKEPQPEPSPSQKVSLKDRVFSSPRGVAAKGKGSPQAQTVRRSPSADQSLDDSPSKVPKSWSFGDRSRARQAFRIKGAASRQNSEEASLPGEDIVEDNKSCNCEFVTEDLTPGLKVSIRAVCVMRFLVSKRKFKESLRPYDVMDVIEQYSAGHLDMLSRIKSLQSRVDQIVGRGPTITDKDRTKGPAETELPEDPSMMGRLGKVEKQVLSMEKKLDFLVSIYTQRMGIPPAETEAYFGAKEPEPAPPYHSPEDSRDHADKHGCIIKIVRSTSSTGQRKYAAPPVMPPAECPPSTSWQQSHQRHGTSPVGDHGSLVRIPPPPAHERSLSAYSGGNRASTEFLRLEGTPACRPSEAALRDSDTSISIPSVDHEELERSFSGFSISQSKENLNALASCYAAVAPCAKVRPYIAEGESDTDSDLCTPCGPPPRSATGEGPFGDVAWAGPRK

[12] = target: Metabotropic glutamate receptor 4 (Homo sapiens, UniProt Q14833); assay: Modulation of the Metabotropic Glutamate Receptor mGluR4: Calcium Assay. [Related pubchem assays: 2180, 2199, 2193, 2179, 2182, 2183, 2191, 2181, 2190, 2188, 2185, 2197 ]; type: functional
Sequence of Metabotropic glutamate receptor 4 (Q14833 whole entry): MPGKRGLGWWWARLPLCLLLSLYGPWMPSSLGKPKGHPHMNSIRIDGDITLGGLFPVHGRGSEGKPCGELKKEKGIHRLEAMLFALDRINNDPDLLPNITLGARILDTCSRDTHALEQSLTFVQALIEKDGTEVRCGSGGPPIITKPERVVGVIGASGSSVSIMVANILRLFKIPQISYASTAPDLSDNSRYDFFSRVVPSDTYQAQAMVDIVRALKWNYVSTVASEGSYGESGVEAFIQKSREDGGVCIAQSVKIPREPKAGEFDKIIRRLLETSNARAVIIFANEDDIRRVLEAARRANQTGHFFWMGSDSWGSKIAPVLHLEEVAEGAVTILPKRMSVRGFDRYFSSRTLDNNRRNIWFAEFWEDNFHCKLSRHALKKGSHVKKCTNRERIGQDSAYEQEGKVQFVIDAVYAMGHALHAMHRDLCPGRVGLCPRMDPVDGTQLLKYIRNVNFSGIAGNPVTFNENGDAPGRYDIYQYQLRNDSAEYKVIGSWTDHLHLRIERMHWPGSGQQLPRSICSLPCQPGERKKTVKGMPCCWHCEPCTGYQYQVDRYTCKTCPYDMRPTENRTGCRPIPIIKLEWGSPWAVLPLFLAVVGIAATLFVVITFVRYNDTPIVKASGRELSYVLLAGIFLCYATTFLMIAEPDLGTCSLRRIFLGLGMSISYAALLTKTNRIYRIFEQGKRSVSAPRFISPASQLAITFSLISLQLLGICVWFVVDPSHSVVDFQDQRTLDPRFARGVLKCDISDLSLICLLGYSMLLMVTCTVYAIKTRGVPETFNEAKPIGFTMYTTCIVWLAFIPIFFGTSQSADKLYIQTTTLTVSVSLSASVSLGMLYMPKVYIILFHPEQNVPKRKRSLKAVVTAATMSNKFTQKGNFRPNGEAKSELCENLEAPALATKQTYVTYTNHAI

- IC50 [1]: > 47.1 µM (inactive)
- EC50 [2]: > 53 µM (inactive)
- EC50 [3]: > 55.7 µM (not active)
- EC50 [4]: > 55.7 µM (not active)
SMILES: C=CCN(c1ccccc1)S(=O)(=O)c1cccc(C(=O)O)c1

- IC50 [5]: 4 µM (active)
SMILES: CCOC(=O)c1ccc(-n2ncc(Cl)c(Oc3ccc(OC)cc3)c2=O)cc1

SMILES: O=C(N/N=C/c1cc(Br)ccc1OC(=O)c1ccc(Br)cc1)c1ccncc1
- EC50 (cells [6]): 121 µM (active)
- AC50 (INS1): 2.29 µM (active)
- EC50 (cells [7]): 20 µM (active)
- IC50 [8]: 5.99 µM (active)

- EC50 [9]: > 49.7 µM (not active)
- EC50 (Wee1-like protein kinase): > 49.7 µM (not active)
SMILES: COc1ccc(/C=N/NC(=O)c2ccc3ccccc3c2)cc1OS(=O)(=O)c1ccc(NC(C)=O)cc1
- CC50 [10]: > 40 µM (active)

- EC50 [11]: 14.4 µM (active)
SMILES: O=C(Nc1ccc(Cl)nc1)c1ccc(F)c(F)c1

- EC50 [12]: 6.4 µM (active)
SMILES: COc1nc(NC(=O)c2ccccn2)ccc1Cl
